Our source for the RP-LC retention time values is the METLIN SMRT retention time set (Domingo-Almenara et al. 2019).

This data set in a line: gradient 5% acetonitrile 3 min, to 50% in 2 min, to 85% in 15 min, held 3 min, 100 µL/min. The settings on record: column: Zorbax Extend-C18 2.1 x 50 mm; eluents: water / acetonitrile, 0.1% formic acid. A digest of the protocol:
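Over 3 months, pure standards in mixtures of ~100 molecules were run by HPLC coupled to a quadrupole time-of-flight mass spectrometer in positive and negative ionization mode. The column was a Zorbax Extend-C18 (2.1 × 50 mm, 1.8 μm) at 100 μL/min, eluted with water and acetonitrile each holding 0.1% formic acid, with 40 μL dead and 900 μL dwell volumes. Retention time was determined from adduct peaks chosen by software and checked manually.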
The compound `COc1ccc(-c2c(C)noc2NC(C)=O)cc1S(=O)(=O)Nc1cc(F)ccc1F` registered an RP-LC retention time of 748 s.

`Cc1ccc(S(=O)(=O)Cc2cccc(-c3nc(-c4ccc5c(c4)oc(=O)n5C)no3)c2)cc1` displayed an RP-LC retention time of 1030 s. Take `COc1ccc(-c2noc(-c3cc(N4CCN(C)CC4)nc4ccccc34)n2)cc1`: the RP-LC retention time came out at 794 s. `O=C(CCC(=O)N1CC2CCCN2c2ccccc21)NCCCN1CCCC1` (stereo not drawn) showed an RP-LC retention time of 627 s. In turn, `CN(C)c1ccc(CNS(=O)(=O)c2cc(-c3nc(C(C)(C)C)cs3)cs2)cc1` returned an RP-LC retention time of 1100 s. The compound `Cn1c(=O)n(C)c2cc(N3CCCCC3)c(NC(=O)NC3CCCC3)cc21` gave an RP-LC retention time of 654 s. `CCCCS(=O)(=O)N1CC[C@H](CN(C)C(C)=O)[C@H](N(C)C)C1` yielded an RP-LC retention time of 584 s. Consider `CCc1cc2nn(CC#N)c(=O)n2c(C(C)C)n1`, for which the RP-LC retention time was 871 s. Compound `COc1ccc(NC(=O)CSc2ccc(N3CCCC(C(=O)NC4CC4)C3)nn2)cc1` (stereo not drawn) yielded an RP-LC retention time of 617 s.

For the compound `Cc1ccc(C)c(Cn2nc(-c3nc(C(C)(C)C)no3)ccc2=O)c1`, the RP-LC retention time worked out at 1170 s. The same measure for `O=C(Cn1nc2c3cc(F)ccc3ncn2c1=O)Nc1ccccc1F`: 656 s; for `Cc1cc(C)cc(NC(=O)Cn2cnc3c(sc4nc(-c5ccccc5)ccc43)c2=O)c1`: 1100 s. `CCn1cc(C)c(C(=O)O)c1CC(=O)NCCc1ccc(C)cc1` had an RP-LC retention time of 842 s. The figure for `CCc1nc2cc(-c3noc(COc4cccc(Cl)c4)n3)ccc2o1` is 1240 s; for `N#Cc1cccc(C(=O)NC2(c3nc(-c4ccncc4)no3)CCCCC2)c1` it is 875 s. The same measure for `COc1ccc(N2CCN(c3ncc(C(=O)O)c(C)n3)CC2)cc1`: 713 s; for `Cc1ccc2c(Nc3ccc(S(N)(=O)=O)cc3)c(C(=O)N3CCCCC3C)cnc2n1` (stereo not drawn): 590 s.

The compound `COCCN1C(=O)c2ccccc2C(C(=O)NCCCOC(C)C)C12CCCCC2` (stereo not drawn) registered an RP-LC retention time of 756 s.

The compound `O=c1c2ccccc2n(Cc2nc(-c3ccccc3)no2)c(=O)n1CC1CCCO1` (stereo not drawn) came in with an RP-LC retention time of 978 s. The same measure for `CCCCN(C(=O)c1nc(C)n(C2CCN(S(C)(=O)=O)CC2)c1C)c1ccccc1`: 666 s; for `CCOC(=O)c1c(C)oc2ncnc(NCC3CCN(Cc4ccccc4F)CC3)c12`: 694 s; for `CCn1cnc2cc(-c3noc(C(C)NS(=O)(=O)c4ccc(C)cc4)n3)ccc21` (stereo not drawn): 683 s.

`COc1ccc2c(c1)C1(CCN(C(=O)NCc3ccc(C)cc3)C1)C(=O)N2` (stereo not drawn) gave an RP-LC retention time of 725 s. For `COC(=O)c1c(NCc2ccc(SC)cc2)c2cccc(Cl)c2[nH]c1=O`, the RP-LC retention time was 853 s. `CCCOc1nc2ccccc2nc1N1CCCC(C(=O)Nc2ccccc2OCC)C1` (stereo not drawn) displayed an RP-LC retention time of 1280 s. The same measure for `O=C(NCc1ccccc1)C1CCc2sc(C(=O)N3CCCC3)cc2C1` (stereo not drawn): 702 s. As for `COc1ccc(NC(=O)C2CC(=O)N(c3ccc4c(c3)CCN4C(C)=O)C2)cc1F` (stereo not drawn), the RP-LC retention time came out at 687 s. Regarding `CCC1CN2C=NC(N3CCN(C(=O)Nc4ccccc4Cl)CC3)=CC2=N1` (stereo not drawn), the RP-LC retention time is 814 s. Consider `CC(=O)Nc1cccc(-c2nc(-c3ccc4oc(-c5ccccc5)nc4c3)no2)c1`, for which the RP-LC retention time is 769 s. `CCn1cc(C)c(C(=O)O)c1CC(=O)NCc1ccc(SC)cc1` gave an RP-LC retention time of 758 s.

The compound `Cc1c(Cl)cccc1NC(=O)Cn1c(C)nc2onc(C)c2c1=O` gave an RP-LC retention time of 817 s. `COc1ccc(NC(=O)N2CCN(c3cc(-n4nc(C)cc4C)ncn3)CC2)cc1Cl` showed an RP-LC retention time of 852 s. For the compound `CC(C)c1cc(C(=O)N2CCOCC2)nc2ccnn12`, the RP-LC retention time was determined as 637 s.

As for `CCOc1ccccc1N(CC)C(=O)C1CCCN(c2ncnc3c2nc2n3CCCCC2)C1` (stereo not drawn), the RP-LC retention time amounted to 807 s. The same measure for `O=C(NC1CCCCCC1)C1CCN(S(=O)(=O)c2cc(-c3noc(C4CCC4)n3)cs2)CC1`: 1110 s; for `CC(C(=O)N1CCN(Cc2ccc3c(c2)OCO3)CC1)n1c2ccccc2c2cnn(C)c(=O)c21` (stereo not drawn): 669 s.

On to `O=C(Cn1nc2c3cc(-c4ccccc4)nn3ccn2c1=O)Nc1ccc(Br)cc1`, for which the RP-LC retention time turned out to be 947 s. The figure for `CN(CCCNC(=O)C1c2ccccc2C(=O)N(C)C1c1cccs1)Cc1ccccc1` (stereo not drawn) is 645 s; for `O=C(NCc1ccc(F)cc1)C1CCCN(c2nc3ccccc3n(Cc3ccccc3)c2=O)C1` (stereo not drawn) it is 1140 s.

`Cc1cc(C(=O)NC(C)C)c2cc(Cl)ccc2n1` gave an RP-LC retention time of 718 s.

For `Cc1cc(C(=O)NCCn2ncc3c(=O)n(Cc4ccc(F)cc4)cnc32)c(C)o1`, the RP-LC retention time is 705 s. `CCOC(=O)c1sc(NC(=O)c2cc(C)n(C)n2)nc1-c1ccccc1` displayed an RP-LC retention time of 928 s. As to `Cc1ccc(N2CC(c3nc(-c4ccc5c(c4)ncn5C)no3)CC2=O)cc1` (stereo not drawn), the RP-LC retention time turned out to be 664 s.

On to `Cc1cccc(S(=O)(=O)N2C[C@H]3CN(S(=O)(=O)c4ccc(C#N)cc4)C[C@@H](C2)O3)c1`, for which the RP-LC retention time is 945 s. The compound `Cc1ccc(S(=O)(=O)N2CCCC(Cn3cnc4cccnc43)C2)c(C)c1` (stereo not drawn) had an RP-LC retention time of 821 s. Consider `Cc1ccc(Cl)cc1NC(=O)CN1CCN(c2ccc(F)cc2)CC1`, for which the RP-LC retention time is 658 s. The same measure for `CCC(c1cccs1)N1C(=O)[C@H]2CN(S(=O)(=O)c3ccccc3)C[C@H]2C1=O` (stereo partly drawn): 946 s. `Cn1c(=O)n(C)c2cc(CNc3ccc(O)cc3)ccc21` returned an RP-LC retention time of 1190 s. As to `Cc1ccc2nc(C(=O)NC3CCN(Cc4ccccc4)CC3)cn2c1`, the RP-LC retention time was found to be 560 s. The same measure for `Cc1cc(NC(=O)N(C)Cc2nc3cc(C(=O)N(C)C)ccc3n2C)ccc1Br`: 662 s. `Cc1ccc(OCc2nc(-c3cccc(-c4ccnn4C)c3)no2)cc1` had an RP-LC retention time of 1130 s. For the compound `Cc1cc(S(=O)(=O)NCC2(C)CCOCC2)ccc1F`, the RP-LC retention time came out at 840 s. Consider `O=C(Cn1cc(-c2nc(-c3ccc(Cl)cc3)no2)ccc1=O)N1CCCC1`, for which the RP-LC retention time worked out at 959 s. Compound `O=C(Cn1nc2nc(Nc3ccc(F)cc3)ccn2c1=O)NCc1ccc(F)cc1Cl` yielded an RP-LC retention time of 753 s. The figure for `COc1cccc(NC(=O)C2CCN(S(C)(=O)=O)c3ccccc3O2)c1` (stereo not drawn) is 810 s; for `Cc1nnc(-c2cc(C)n(CC(=O)Nc3ccc(Br)cc3)c2C)o1` it is 836 s; for `CCNC(=O)N(CC(=O)N1CCc2sccc2C1COc1ccc(F)cc1)CC1CCCO1` (stereo not drawn) it is 856 s.

For the compound `CCc1ccccc1NC(=O)C1CCCN(S(=O)(=O)c2cn(CC)cn2)C1` (stereo not drawn), the RP-LC retention time worked out at 726 s.
